# Test results taken from US20220143184A1, “MITOCHONDRION/RIBONUCLEIC ACID-TARGETED AND MIGRATABLE PHOTOSENSITIZED PROBE AND APPLICATION THEREOF” (SHENZHEN INSTITUTES OF ADVANCED TECHNOLOGY, priority 2019, published 2022).
# What was measured:
# [1] = Singlet oxygen generation in aqueous solution, ABDA absorbance (Example 8, Experiment 2); type: physicochemical; settings: for absorbance of ABDA at 378 nm with light irradiation: 50 μM ABDA, white light 300 mW/cm^2, 0-6 min
# Procedure: (§1) Different reactive oxygen indicators were added to the photosensitized probe aqueous solution, and the fluorescence or absorption spectra were measured. Four experiments were conducted as follows:
# 50 μM ABDA was added to the aqueous solutions of PBS, 2 μM photosensitized probe, 2 μM photosensitized probe+0.8 mM RNA, and 2 μM RB (a commercial singlet oxygen-generating photosensitizer). These solutions were irradiated for 0-6 min with the white light (300 mW/cm^2) of the xenon lamp, absorption spectra at 300-600 nm were measured, and the absorbance values at 378 nm were recorded to indicate the generation rate of singlet oxygen.
# HeLa cells [2] = test: Fluorescence imaging of live HeLa cells stained with the probe, before and after light irradiation (Example 3); type: cell-based; settings: 10 μM
# Procedure: The following three groups of experiments were performed: (1) The cells were stained in darkness for 30 min, and then irradiated by a white light of the mercury lamp for 5 min; (2) The cells were stained in darkness for 30 min, without light irradiation. (1) The cells were stained in darkness for 10 min. (2) The cells were stained in darkness for 30 min. (3) The cells were stained in darkness for 60 min. (4) The cells were stained in darkness for 120 min. (1) The cells were stained for 30 min, and then irradiated by light at 510-560 nm for 10 seconds. (2) The cells were stained for 30 min, and then irradiated by light at 510-560 nm for 1 minute. (3) The cells were stained for 30 min, and then irradiated by light at 510-560 nm for 2 min. (4) The cells were stained for 30 min, and then irradiated by light at 510-560 nm for 3 min. (5) The cells were stained for 30 min, and then irradiated by light at 510-560 nm for 4 min. (6) The cells were stained for 30 min, and then irradiated by light at 510-560 nm for 5 min. The stained cells were observed under a fluorescence microscope and a confocal laser scanning microscope and the stained regions, fluorescence distributions, and intensity changes in cells were recorded.
# [3] = system: ribonucleic acid in the fixed cells; test: DNase and RNase digestion experiments in fixed HeLa cells (Example 4); type: cell-based; settings: 50 μg/mL RNase 2 h, 10 μM probe 30 min
# Procedure: Preparation of fixed cells: firstly, the cover glasses (slides) covered with HeLa cells prepared in Example 2 were soaked in a 4% paraformaldehyde solution for 30 min, and then permeated with a 0.5% Triton X-100 at room temperature for 2 min to prepare fixed cells for staining.
# Three groups of the above fixed cells were taken, in which, two groups were added with a 2 U/mL RNase-free DNase and a 50 μg/mL DNase-free RNase for digestion in the incubator for 2 h individually.
# The stained slides were observed under a wide-field fluorescence microscope to record the stained regions, fluorescence distribution, and intensity changes in the cells.
# ribonucleic acid [4] = test: Recognition of ribonucleic acid and deoxyribonucleic acid in solution, absorption/fluorescence spectra (Example 5); type: binding; settings: 10 μM probe
# Procedure: A probe solution at concentration of 10 μM was mixed with a 120 μg/mL ribonucleic acid/deoxyribonucleic acid in PBS for 5 min, respectively, and then ultraviolet-visible absorption spectra and the fluorescence spectra under excitation at 488 nm were measured.
# [5] = Generation rate of all types of reactive oxygen species in aqueous solution, DCFH (Example 8, Experiment 1); type: physicochemical; settings: 2 μM probe + 0.8 mM RNA, white light 300 mW/cm^2, 0-180 s
# Procedure: as §1
# 10 μM 2′,7′-dichlorodihydrofluorescein (DCFH) was added to aqueous solutions of PBS, 2 μM photosensitized probe, 2 μM photosensitized probe of the application+0.8 mM RNA, and 2 μM Rose Bengal B (RB). These solutions were irradiated for 0-180 s with white light (300 mW/cm^2) of a xenon lamp with ultraviolet light filtered out, fluorescence spectra at 500-700 nm were measured under 488 nm excitation, and the fluorescence intensities at 529 nm were recorded to indicate the generation rate of all types of reactive oxygen species.
# [6] = Hydroxyl radical generation in aqueous solution, APF fluorescence (Example 8, Experiment 3); type: physicochemical; settings: 10 μM APF, white light 300 mW/cm^2, 0-180 s
# Procedure: as §1
# 10 μM APF was added to the aqueous solutions of PBS, 2 μM photosensitized probe, 2 μM photosensitized probe+0.8 mM RNA, 2 μM RB (a commercial singlet oxygen-generating photosensitizer). These solutions were irradiated for 0-180 s with the white light (300 mW/cm^2) of the xenon lamp, the fluorescence spectra at 500-700 nm were measured, and the fluorescence intensities at 514 nm were recorded to indicate the generation rate of hydroxyl radical.
# [7] = Oxygenous radicals by electron spin resonance with DMPO (Example 8, Experiment 4); type: physicochemical; settings: white light 300 mW/cm^2, 5 min
# Procedure: as §1
# DMPO was added to the aqueous solutions of RNA, 2 μM photosensitized probe of the application, 2 μM photosensitized probe+0.8 mM RNA. These solutions were irradiated for 5 min by the white light (300 mW/cm^2) of the xenon lamp. The electron spin resonance spectra before and after irradiation were measured, and the signal intensities indicate the amount of hydroxyl radicals.
# HeLa cells [8] = test: Reactive oxygen species in HeLa cells before and after photodynamic therapy, DCFH-DA (Example 9); type: cell-based; settings: 10 μM probe, 10 μM DCFH-DA, mercury lamp 510-560 nm, 3 min
# Procedure: (§2) The glass-bottom cell culture dishes covered with HeLa cells prepared in Example 2 were washed three times with PBS, then incubated with 10 μM DCFH-DA in a CO2 incubator in darkness for 30 min. […] The stained cells were observed under a confocal laser scanning microscope, and the fluorescence distribution and intensity changes in the cells before and after the photodynamic therapy (irradiated with mercury lamp at 510-560 nm) were recorded.
# [9] = system: mitochondria of HeLa cells; test: Colocalization with Mito-Tracker Green (MTG) in HeLa cells before and after photodynamic therapy (Example 10); type: cell-based; settings: 10 μM probe, 1 μM MTG
# Procedure: as §2, with “with a 1” for “with 10”, “μM MTG” for “μM DCFH-DA”, “and” for “and the”, “(irradiated by” for “(irradiated with”
# HeLa cells [10] = test: Mitochondrial membrane potential of HeLa cells, JC-10 (Example 11); type: cell-based; settings: 10 μM probe, mercury lamp 510-560 nm
# Procedure: The cells were observed under a confocal laser scanning microscope, and the fluorescence distribution and intensity changes in the cells before and after photodynamic therapy (irradiated by mercury lamp at 510-560 nm) were recorded.
# HeLa cells [11] = test: Cell morphology (DIC) of HeLa cells during photodynamic therapy (Example 12); type: cell-based; settings: 10 μM probe, 510-560 nm, 3 min irradiation
# Procedure: The resulting stained cells and a control group without the photosensitized probe incubation were observed under a fluorescence microscope, and differential interference contrast images of the cells during the photodynamic therapy (irradiated with mercury lamp at 510-560 nm) were recorded.
# Ribonucleic acid (RNA) = test: Specific fluorescence recognition of biomolecules in solution (Example 13); type: binding; settings: 2 μM probe
# Procedure: After interaction for 5 min, the fluorescence spectra under excitation at 500 nm were measured, and the fluorescence intensities at 600 nm were recorded. Biomolecules include: Ribonucleic acid (RNA, 1.6 mM), deoxyribonucleic acid (DNA, 1.6 mM), amino acids (10 mM), hydrogen peroxide (10 mM), and metal ions (10 mM); in which, the amino acids include: Glutathione (GSH), homocysteine (Hcy), cysteine (Cys), glycine […], alanine (Ala), norvaline (Nor), glutamate (Glu), histidine (his), isoleucine (Iso), leucine (Leu), methionine (Met), phenylalanine (Phe), proline (Pro), serine (Ser), threonine (Thr), tryptophan (Try), and tyrosine (Tyr); and the metal ions include: Ca^2+, Fe^3+, Mg^2+, and Zn^2+.
# ribonucleic acid [12] = test: Binding mode with ribonucleic acid, circular dichroism spectra (Example 14); settings: 10 μM in PBS, 5 min
# Procedure: 10 μM (E)-4-(2-(5-methoxy-1H-indole-3-)vinyl)-1-methylquinolinium iodide was mixed with ribonucleic acid and deoxyribonucleic acid in PBS for 5 min, and the circular dichroism spectra were measured.
# HeLa cells [13] = test: Flow cytometry fluorescence intensity of HeLa cells before and after photodynamic therapy (Example 15); type: cell-based; settings: 10 μM 30 min, xenon lamp white light 5 min
# Procedure: Three groups of HeLa cells prepared in Example 2 were washed three times with PBS. […] The three groups of cells were digested in darkness and dispersed in PBS, and the number of cells and their fluorescence intensities are recorded and analyzed by flow cytometry was.
# HeLa cells [14] = test: Dark toxicity to HeLa cells, MTT method (Example 16); type: cell-based; settings: 0-20 μM
# Procedure: The HeLa cells prepared in Example 2 were incubated in a 96-well plate with 1×10^4 cells per well. […] The cell viability was determined by the MTT method to determine the dark toxicity of the probe.
# HeLa cells [15] = test: Photodynamic therapy efficiency to HeLa cells, MTT method (Example 16); type: cell-based; settings: 5-20 μM, 30 min in darkness, xenon lamp white light 5 min
# [16] = system: 4T1 cell subcutaneous tumor
# Procedure: The 4T1 cells were cultured adherently in a culture medium containing a 10% fetal bovine serum, in a saturated humidity incubator with 5% CO2 at 37° C., and subcultured every 2-3 days. After the cells have grown to the logarithmic phase, the cells were subcutaneously inoculated into the right hind leg of a nude mouse: Specifically, the overgrown cells in the T25 cell culture flask were washed with 1 mL 0.25% trypsin, and then digested with another 1 mL 0.25% trypsin for 1 to 2 min. After adding the fresh medium, the cells were evenly pipetted, counted, centrifuged and washed with PBS three times, the cell density was controlled with the added amount of PBS to make a final concentration of cells to be 1×107 per milliliter. After that the cells were inoculated subcutaneously into the right hind leg of nude mice, each with approximately 1.2×10^6 cells. After the tumors grow for approximately a week, the mice were used for tumor photodynamic therapy and in vivo fluorescence imaging experiments.
# The nude mouse tumor models prepared in Example 7 were divided into three groups for intratumor injection of drugs, with a dosage of 50 μL (1 mM) per tumor volume 100 mm^3.
# After the photodynamic therapy, the tumor tissues are sectioned and stained with TUNEL and HE, and the results are shown in FIG. 19.
# [17] = 120 μg/mL RNA in PBS, 5 min, excitation 488 nm
smiles,measurement,setting,value
"O=C1OC2(c3cc(I)c(O)c(I)c3Oc3c2cc(I)c(O)c3I)c2c(Cl)c(Cl)c(Cl)c(Cl)c21 [RB, Rose Bengal B, reference compound]",absorbance of ABDA at 378 nm with light irradiation,"[1]; 2 μM, without RNA",decreases much faster
"COc1ccc2[nH]cc(/C=C/c3cc[n+](C)c4ccccc34)c2c1.[I-] [photosensitized probe 1, (E)-4-(2-(5-methoxy-1H-indole-3-)vinyl)-1-methylquinolinium iodide]",fluorescence of live cells stained in darkness with increasing incubation time,HeLa cells [2]; darkness 10-120 min,relatively weak red fluorescence only in the cytoplasm regions
same,fluorescence with increasing light irradiation time,"HeLa cells [2]; stained 30 min, 510-560 nm green light 10 s-5 min",the fluorescence gradually increases
same,fluorescence of live cells after light irradiation,"HeLa cells [2]; stained 30 min, mercury lamp white light 5 min, 488 nm excitation",strong red fluorescence in the cytoplasm and nucleolus region
same,fluorescence of live cells without light irradiation,"HeLa cells [2]; stained in darkness 30 min, 488 nm excitation, confocal",weak red fluorescence only in the cytoplasm region
same,fluorescence of the cells treated with RNase versus control group,[3],much weaker than that of the control group
same,fluorescence emission peak after interacting with ribonucleic acid,ribonucleic acid [4]; [17],around 600 nm
same,increase of fluorescence intensity in RNA solution compared with the probe itself,ribonucleic acid [4]; [17],approximately 40 times
same,fluorescence with RNA compared with deoxyribonucleic acid,ribonucleic acid [4]; 120 μg/mL RNA or DNA in PBS,significantly stronger than the fluorescence after binding with deoxyribonucleic acid
same,rate of reactive oxygen species production (DCFH fluorescence at 529 nm) versus probe alone and RB,[5],significantly higher
same,absorbance of ABDA at 378 nm with light irradiation,[1]; 2 μM probe + 0.8 mM RNA,slight decrease
same,singlet oxygen generation compared with RB,"[1]; 2 μM, white light 300 mW/cm^2",generates less singlet oxygen
same,absorbance of ABDA at 378 nm with light irradiation,"[1]; 2 μM, without RNA",slight decrease
same,hydroxyl radicals generation (APF fluorescence at 514 nm),[6]; 2 μM probe + 0.8 mM RNA,more hydroxyl radicals are generated
same,hydroxyl radicals generation (APF fluorescence at 514 nm),[6]; 2 μM probe alone,can effectively generate hydroxyl radicals
same,oxygenous radicals generation (ESR),[7]; 2 μM probe + 0.8 mM RNA,more oxygenous radicals can be generated
same,oxygenous radicals generation (ESR),[7]; 2 μM probe alone,can effectively generate oxygenous radicals
same,intensity of green fluorescence of DCFH-DA (reactive oxygen species level in the cells) after irradiation,HeLa cells [8],increases remarkably
same,location of the probe before photodynamic therapy,[9]; darkness,located in the mitochondria
same,location of the probe after photodynamic therapy,[9]; mercury lamp 510-560 nm,migration of the photosensitized probe to the cytoplasm and nucleolus regions
same,mitochondria membrane potential after photodynamic therapy (JC-10 aggregates fluorescence),HeLa cells [10],significantly reduced
same,cell morphology after light irradiation (symbol of cell apoptosis),HeLa cells [11],many vesicles form near cell membrane
same,increase of fluorescence intensity after binding with ribonucleic acid compared with the probe itself,"Ribonucleic acid (RNA); RNA 1.6 mM in PBS, 5 min, excitation 500 nm, emission 600 nm",more than 100 times
same,fluorescence with RNA compared with deoxyribonucleic acid,"Ribonucleic acid (RNA); RNA 1.6 mM, DNA 1.6 mM",significantly stronger than that of the probe after binding with deoxyribonucleic acid
same,fluorescence response to other biomolecules,"Ribonucleic acid (RNA); amino acids, hydrogen peroxide, metal ions 10 mM",no obvious fluorescence response
same,binding mode with ribonucleic acid,ribonucleic acid [12],minor groove binding
same,circular dichroism spectrum after being mixed with DNA,ribonucleic acid [12],no obvious change
same,circular dichroism spectrum after being mixed with RNA,ribonucleic acid [12],negative Cotton effect
same,fluorescence intensity of the cells after photodynamic therapy versus group without photodynamic therapy,HeLa cells [13],enhanced significantly
same,dark toxicity,HeLa cells [14]; 24 h,very low and negligible
same,cell viability in darkness,"HeLa cells [14]; incubation 24 h, darkness",~100%
same,cell viability after photodynamic therapy,HeLa cells [15],greatly reduced
same,tumor growth (tumor volume),"[16]; 1+Light, within 16 days of therapy",significantly inhibited
same,fluorescence intensity of the tumor site with the progress of the photodynamic therapy,"[16]; intratumor injection 50 μL (1 mM) per 100 mm^3, 0-10 min during and 10-60 min after therapy",increases significantly
same,fluorescence at the tumor site after the photodynamic therapy,[16]; probe with light irradiation,bright fluorescence at the tumor site
same,TUNEL staining of tumor tissue section,[16]; probe with photodynamic therapy,died in the apoptosis pathway
same,HE staining of tumor tissue section,[16]; probe with photodynamic therapy (third group),seriously damaged
same,fluorescence at the tumor site without the photodynamic therapy,"[16]; probe, fed in darkness",weak fluorescence at the tumor site
